Measured values: patent publication US9345739B2, “Methods and compositions for the treatment of proteinuric diseases” (The General Hospital Corporation, priority 2007, dated 2016)
“Also recorded” adds a separate entry of the source. Blank lines part the entries; values can stand above or below the compound they belong to.

What was measured:
Rac1 = experiment: GTPase activity assay in isolated glomeruli (Rac1); assay type: in vivo, mouse; settings: wild type mice co-injected with LPS and RGDfV (every 8 hours for 24 hours)
Method: (§1) Rho family small GTPase activity in glomerular lysates was measured by Rho/Rac/Cdc42 activation assay kit (Cell Biolabs, INC.) following the manufacturer's protocol. Isolated glomeruli from wild type and uPAR^−/− mice, some of them treated with LPS (t=0) and with RGDfV (SEQ ID NO: 1) every 8 hours for 24 hours were obtained by standard sieve technique^25. 2 mg of glomerular lysate were used to prepare for positive or negative control by incubating with 10 μl of GTPγS or GDP respectively. For small GTPase pull-down assay, the same amount (2 mg) of glomerulus lysates from different treatments were incubated with 40 μl of Rhotekin RBD or PAK PBD agarose bead slurry for 1 h at 4° C. After washing 3 times with 1× assay buffer, beads were harvested and resuspended in LDS sample buffer. Samples were heated for 10 min at 70° C. before SDS-PAGE. After electrophoresis and protein transfer, the membranes were blocked with 5% milk, and incubated with anti-Rho, anti-Rac, and anti-Cdc42 antibodies for 1 h, followed by second antibody incubation and detection with ECL (Pierce). For loading control, 100 μg of glomerular lysates from different treatments were applied and immunoblotted with the same anti-Rho, anti-Cdc42 and anti-Rac antibodies as used above.

cdc42 = experiment: GTPase activity assay in isolated glomeruli (cdc42); assay type: in vivo, mouse; settings: wild type mice co-injected with LPS and RGDfV (every 8 hours for 24 hours)
Method: as §1

αvβ3 integrin [1] = target: T1, αvβ3 integrin (Mus musculus, UniProt O54890+P43406); assay type: in vivo; settings: mice, LPS only (200 μg intraperitoneally), urine 24 h after LPS
T1 construct: from tissue; host or cells: living wild type (C57BL/6, 'B6') mice
T1 sequence (P43406 31-1044): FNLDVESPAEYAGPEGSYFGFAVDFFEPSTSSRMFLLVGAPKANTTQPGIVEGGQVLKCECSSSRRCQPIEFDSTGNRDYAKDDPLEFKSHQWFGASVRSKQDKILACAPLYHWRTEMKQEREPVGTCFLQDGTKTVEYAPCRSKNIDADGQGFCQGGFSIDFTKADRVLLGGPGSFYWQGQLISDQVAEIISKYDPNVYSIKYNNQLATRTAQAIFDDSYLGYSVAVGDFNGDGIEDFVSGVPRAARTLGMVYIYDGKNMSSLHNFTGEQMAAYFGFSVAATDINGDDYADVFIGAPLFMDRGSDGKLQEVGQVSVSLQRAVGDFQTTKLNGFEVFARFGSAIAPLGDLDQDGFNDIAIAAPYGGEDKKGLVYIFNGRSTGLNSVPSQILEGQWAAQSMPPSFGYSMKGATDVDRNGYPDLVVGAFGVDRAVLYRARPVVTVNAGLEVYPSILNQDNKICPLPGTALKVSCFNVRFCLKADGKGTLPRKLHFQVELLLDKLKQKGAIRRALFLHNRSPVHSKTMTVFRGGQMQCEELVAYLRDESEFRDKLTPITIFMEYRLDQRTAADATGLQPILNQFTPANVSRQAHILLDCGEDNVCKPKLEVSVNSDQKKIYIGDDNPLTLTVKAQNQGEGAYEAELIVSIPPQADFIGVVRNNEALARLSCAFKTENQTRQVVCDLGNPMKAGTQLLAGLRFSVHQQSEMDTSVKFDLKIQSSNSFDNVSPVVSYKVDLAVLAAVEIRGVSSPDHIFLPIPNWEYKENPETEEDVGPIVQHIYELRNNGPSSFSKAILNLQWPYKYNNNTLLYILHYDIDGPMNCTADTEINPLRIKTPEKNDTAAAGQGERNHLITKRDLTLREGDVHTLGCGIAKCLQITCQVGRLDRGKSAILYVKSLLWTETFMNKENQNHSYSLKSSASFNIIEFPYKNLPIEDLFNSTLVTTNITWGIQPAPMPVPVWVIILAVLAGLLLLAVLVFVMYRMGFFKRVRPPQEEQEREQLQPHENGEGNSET
T1 sequence (O54890 26-787): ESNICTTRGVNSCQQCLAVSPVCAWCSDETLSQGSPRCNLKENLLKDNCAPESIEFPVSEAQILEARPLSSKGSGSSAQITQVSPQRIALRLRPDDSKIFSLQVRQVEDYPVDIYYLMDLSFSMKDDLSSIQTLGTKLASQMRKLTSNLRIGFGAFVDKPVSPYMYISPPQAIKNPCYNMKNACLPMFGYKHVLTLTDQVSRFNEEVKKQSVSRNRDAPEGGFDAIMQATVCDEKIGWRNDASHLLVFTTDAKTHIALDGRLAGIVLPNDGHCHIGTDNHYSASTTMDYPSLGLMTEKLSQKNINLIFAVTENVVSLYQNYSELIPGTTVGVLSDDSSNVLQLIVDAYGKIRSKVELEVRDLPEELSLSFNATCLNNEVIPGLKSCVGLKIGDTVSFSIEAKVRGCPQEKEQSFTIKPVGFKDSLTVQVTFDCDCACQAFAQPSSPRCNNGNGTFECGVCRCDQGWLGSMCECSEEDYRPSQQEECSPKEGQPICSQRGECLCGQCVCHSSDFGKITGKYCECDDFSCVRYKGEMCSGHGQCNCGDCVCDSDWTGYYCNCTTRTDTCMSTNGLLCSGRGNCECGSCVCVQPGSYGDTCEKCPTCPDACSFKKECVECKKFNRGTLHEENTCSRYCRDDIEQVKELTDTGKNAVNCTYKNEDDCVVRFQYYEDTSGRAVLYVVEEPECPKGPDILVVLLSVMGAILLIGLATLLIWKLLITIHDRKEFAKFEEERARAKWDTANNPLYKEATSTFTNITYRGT
Method: Immediately after the first injection, 200 μg of LPS was injected intraperitoneally into each mouse to induce proteinuria. 24 h after LPS injection, urine was collected for Braford assay.

[2] = test system: wild type and uPAR−/− mice; experiment: LPS mouse model of proteinuria in wild type and uPAR−/− mice, urine Bradford assay; assay type: in vivo; design: unit not given beside the values; settings: LPS injection
Description: All animal studies were approved by the Subcommittee on Research Animal Care of the Massachusetts General Hospital. uPAR^−/− mice and uPA^−/− mice on a mixed background of 75% C57BL/6 and 25% 129 Swiss were obtained from University of Leuven, Belgium; Vn^−/− mice (C57BL/6) were obtained from Dr. David Ginsburg, University of Michigan; β3 integrin^−/− mice (C57BL/6) were obtained from Dr. Raghuram Kalluri, Boston. C57BL/6 and 129 Swiss mice were purchased from Jackson Laboratory (Bar Harbor). The LPS mouse model was utilized as previously described^9. The induction of B7-1 was used as a control for the effectiveness of LPS. Rat PAN nephrosis model was set up by a single intraperitoneal injection of puromycin (15 mg/100 g of body weight, Sigma-Aldrich) into Sprague-Dawley rats as described before^27. NZB/W F1 mice were purchased from the Jackson Laboratory and analyzed after 20 weeks when proteinuria and Lupus glomerulonephritis were present. As diabetic nephropathy rat model, we used Sprague Dawley rats treated with Streptozotocin. Hyperglycaemic state was induced by an intraperitoneal Streptozotocin injection (50-70 mg/kg body weight, in citrate buffer 10 mmol/L, pH 4.5). The hyperglycaemic state developed within 48 h and was maintained during the lifetime of the animals. No insulin administration was required. Glycosuria was evaluated with test strips of the Uriscan TM (YD Diagnostics, VWR, Montréal, QC, Canada) and glycaemia with the AccuSoft Monitoring System (Roche Diagnostics, Laval, QC, Canada). At the end of the study, glycaemia values were 4.3±0.53 and 8.5±0.7 mmol/L for 3 months-old and 12 months-old normoglycaemic animals, respectively, and 21.2±0.9 and 33.9±4.0 mmol/L for 3 months-old and 12 months-old diabetic animals, respectively.
uPAR-cDNA plasmids were introduced into uPAR^−/− mouse using the TransIT in vivo gene delivery system (Mims) as described previously^32,8. The following cDNAs and vector constructs were used for gene delivery: uPAR; mutated uPAR D262A^38 (kind gift from Y Wei and H A Chapman, University of California, San Francisco); β3 integrin and the constitutively active form of β3 integrin, D616-690 (β3Δ616-690)^48; Podocin promoter vector p2.5^33 (a kind gift from Dr. L B Holzman, University of Michigan) for Pod-uPAR; ICAM-2 promoter vector^34 for ICAM-2-uPAR. Tissues were analyzed for expression as described previously^8.

uPAR = experiment: Induction of uPAR in cultured podocytes, relative quantification; assay type: cell-based, mouse
cultured podocytes [3] = experiment: Scrape wound (wound healing) assay, directed podocyte motility; assay type: cell-based, mouse; settings: for directed podocyte motility into the wound track: wild type podocytes, vitronectin-coated surface, treatment for 24 h
Method: To study the directional movement of podocytes, a wound healing assay was performed. Briefly, podocytes were seeded on Vn or type I collagen coated cover-slips and cultured for 10 days at 37° C. before treated with LPS or PAN for 12-48 h. To create a scrape wound approximately 0.1 cm wide, the narrow end of a P1000 pipette tip was perpendicularly pushed through the monolayer. Then, cover-slips were washed twice with PBS and incubated in medium. After incubation, cells were fixed with 2% PFA and stained with DAPI for analysis. The cell migratory distance was calculated by averaging the distance from the wound edge to the maximally migrated cell in five distinct border zones.

cultured podocytes [4] = experiment: Multiwell Boyden chamber assay, random podocyte migration on vitronectin; assay type: cell-based, mouse; settings: wild type podocytes, treatment for 24 h
Method: Podocyte migration was analyzed using a 12-well chemotaxis chamber (Neuro Probe) according to the manufacturer's protocol. In brief, differentiated podocytes were treated with 50 μg/ml of LPS or PAN for 24 h and then harvested for the migration assay. Bottom plates were coated with vitronectin or type I collagen, while upper plates were loaded with equal number of cells (5×10^4) suspended in medium. The chamber was incubated at 37° C. for 4 h before the membrane was taken out and stained with diamidino phenylindole (DAPI). The average number of migrated cells was counted in four fields in six independent experiments.

αvβ3 integrin [5] = target: T1, αvβ3 integrin; experiment: Recovery of already existing LPS-induced proteinuria, urine Bradford assay; assay type: in vivo; settings: B6 mice, LPS at 0 and 24 h; 25 mg/kg body weight through tail vein 48 h after first injection
Method: B6 mice are injected twice (0, 24 h) with LPS to induce and maintain proteinuria. 48 h after first injection, S247 (n=6) is administered (25 mg/kg body weight) through tail vein. Control (n=5) received the same amount of PBS. 0, 48 h, 66 h urine was collected for Braford assay.

β3 integrin = experiment: Active β3 integrin (AP5 staining) in LPS treated cultured podocytes; assay type: cell-based, mouse; settings: disruption of lipid rafts
Description: Cultured podocytes were immunolabeled as described previously^8.

[6] = target: β3 integrin on cultured mouse podocytes (mouse) (UniProt O54890); experiment: flow cytometry, LPS treated mouse podocytes, 5 µg/ml AP5, 1 mM EDTA
[7] = target: β3 integrin on cultured mouse podocytes (mouse) (UniProt O54890); experiment: flow cytometry, LPS treated mouse podocytes, 5 µg/ml AP5, 0.4 mM Ca2+
[8] = target: β3 integrin on cultured mouse podocytes (mouse) (UniProt O54890); experiment: flow cytometry, LPS treated mouse podocytes, 5 µg/ml AP5, 0.1 mM Ca2+
[9] = target: β3 integrin on cultured mouse podocytes (mouse) (UniProt O54890); experiment: flow cytometry, LPS treated mouse podocytes, 5 µg/ml AP5, 1.0 mM Ca2+
[10] = target: β3 integrin on cultured mouse podocytes (mouse) (UniProt O54890); experiment: flow cytometry, LPS treated mouse podocytes, 5 µg/ml AP5, 2.0 mM Ca2+

induction of active Rac1 in glomeruli (Rac1): inhibited
induction of active cdc42 in glomeruli (cdc42): inhibited
Compound: cyclo-[Arg-Gly-Asp-D-Phe-Val] [cyclo-RGDfV]

Compound: lipopolysaccharide [LPS]
proteinuria (urine Bradford assay) (αvβ3 integrin [1]): 0.924±0.1055
proteinuria (urine Bradford assay) ([2]; uPAR−/− mice reconstituted with uPAR-cDNA): 0.92±0.46
proteinuria (urine Bradford assay) ([2]; uPAR−/− mice which received control plasmids): 0.26±0.15
proteinuria (urine Bradford assay) ([2]; uPAR−/− mice): 0.32±0.14
proteinuria (urine Bradford assay) ([2]; wild type mice): 0.82±0.32
Relative quantification of uPAR induction (uPAR): 0.49±0.06
directed podocyte motility into the wound track (cultured podocytes [3]): 85.34±4.1
podocyte migration (migrated podocytes) (cultured podocytes [4]): 72±5.5

Compound: urokinase
podocyte directional migration / motility (cultured podocytes [3]; cultured podocytes, addition of external urokinase): did not alter; also recorded: did not modify

already existing proteinuria; urinary protein at timepoint 66 h (αvβ3 integrin [5]): Reduction of urinary protein
Compound: O=C(O)C[C@H](NC(=O)CNC(=O)c1cncc(NC2=NCC(O)CN2)c1)c1cc(Cl)cc(Br)c1O (stereo partly drawn) [S247]

Compound: Methyl-β-cyclodextrin
activation of β3 integrin in response to LPS (AP5 staining) (β3 integrin): abrogated

Compound: CN(C)c1ncnc2c1ncn2[C@@H]1O[C@H](CO)[C@@H](N)[C@H]1O [PAN, puromycin aminonucleoside]
Relative quantification of uPAR induction (uPAR): 0.61±0.10
directed podocyte motility into the wound track (cultured podocytes [3]): 79.31±3.72
podocyte migration (migrated podocytes) (cultured podocytes [4]): 67±4.9

Fluorescent intensity units (fluorescent intensity units) [6]: 3020
Fluorescent intensity units (fluorescent intensity units) [7]: 1640
Fluorescent intensity units (fluorescent intensity units) [8]: 3060
Fluorescent intensity units (fluorescent intensity units) [9]: 535
Fluorescent intensity units (fluorescent intensity units) [10]: 312
Compound: anti-active β3 integrin antibody AP5 (GTI)
